Patent US11142526B2, “Spirocycle compounds and methods of making and using same” (H. Lundbeck A/S, priority 2017, dated 2021)
Read-outs that look alike come from different tables or passages of the source.

Key:
MAGL [1] = molecular target: MAGL (Homo sapiens (Human), UniProt Q99685); experiment: In vitro competitive activity-based protein profiling (gel-based, FP-Rh or HT-01 probe); assay type: biochemical
Method: In Vitro Competitive Activity-Based Protein Profiling.
Proteomes (human prefrontal cortex or cell membrane fractions) (50 μL, 1.0 mg/mL total protein concentration) were preincubated with varying concentrations of inhibitors at 37° C. After 30 min, FP-Rh or HT-01 (1.0 μL, 50 μM in DMSO) was added and the mixture was incubated for another 30 min at room temperature. Reactions were quenched with SDS loading buffer (15 μL—4×) and run on SDS-PAGE.

MAGL [2] = molecular target: MAGL (Mus musculus (Mouse), UniProt O35678); experiment: In vitro competitive activity-based protein profiling, mouse brain proteome; assay type: biochemical; settings: for inhibition at 1 µM: mouse; for IC50: mouse brain
[3] = human PFC (prefrontal cortex), read-out: MAGL % Inhibition at 1 μM (human PFC)
[4] = human PC3, read-out: MAGL % Inhibition at 1 μM (human PC3)
[5] = human PC3, read-out: MAGL Human PC3 (IC50)

MAGL (Homo sapiens (Human), UniProt Q99685), sequence (Q99685 whole entry): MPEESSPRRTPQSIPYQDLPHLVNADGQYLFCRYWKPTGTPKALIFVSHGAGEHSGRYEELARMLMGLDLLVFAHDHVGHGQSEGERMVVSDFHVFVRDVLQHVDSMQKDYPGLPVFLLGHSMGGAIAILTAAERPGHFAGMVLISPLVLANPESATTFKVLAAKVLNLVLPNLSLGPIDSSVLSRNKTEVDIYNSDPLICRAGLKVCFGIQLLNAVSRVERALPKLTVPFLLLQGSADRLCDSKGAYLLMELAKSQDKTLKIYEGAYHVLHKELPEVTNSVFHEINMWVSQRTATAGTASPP
MAGL (Mus musculus (Mouse), UniProt O35678), sequence (O35678 whole entry): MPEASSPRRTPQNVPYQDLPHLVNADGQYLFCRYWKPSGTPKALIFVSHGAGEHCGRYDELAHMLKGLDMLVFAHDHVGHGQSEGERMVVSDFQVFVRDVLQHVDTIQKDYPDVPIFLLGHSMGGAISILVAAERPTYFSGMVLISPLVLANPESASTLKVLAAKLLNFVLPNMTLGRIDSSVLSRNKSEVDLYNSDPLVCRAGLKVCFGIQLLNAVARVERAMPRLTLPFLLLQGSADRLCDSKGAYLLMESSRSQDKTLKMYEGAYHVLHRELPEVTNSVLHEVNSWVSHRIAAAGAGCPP

inhibition at 1 µM (MAGL [1]; [3]) [%] | inhibition at 1 µM (MAGL [2]) [%] | inhibition at 1 µM (MAGL [1]; [4]) [%] | IC50 (MAGL [1]; [5]) [nM] | IC50 (MAGL [2]) [nM] | IC50 (MAGL [1]; human PFC (prefrontal cortex), read-out: MAGL Human PFC (IC50)) [nM] | Structure (SMILES)
25 to 75 | 25 to 75 |  |  |  |  | CC(C)n1cc(CN2CCC3(CCN(C(=O)OC(C(F)(F)F)C(F)(F)F)CC3)C2)c(-c2cccc(C(=O)O)c2)n1 [Example 113, 3-(4-((8-(((1,1,1,3,3,3-Hexafluoropropan-2-yl)oxy)carbonyl)-2,8-diazaspiro[4.5]decan-2-yl)methyl)-1-isopropyl-1H-pyrazol-3-yl) benzoic acid]
 | > 75 | > 75 |  |  |  | CC1(NC(=O)c2cn3c(n2)CN(c2ncco2)CC3)CCN(C(=O)OC(C(F)(F)F)C(F)(F)F)CC1 [Example 28, 1,1,1,3,3,3-Hexafluoropropan-2-yl 4-methyl-4-(7-(oxazol-2-yl)-5,6,7,8-tetrahydroimidazo[1,2-a]pyrazine-2-carboxamido)piperidine-1-carboxylate]
> 75 | > 75 | > 75 |  |  |  | O=C(OC(C(F)(F)F)C(F)(F)F)N1CCC2(CCCN2C(=O)c2cc3nc(C4CC4)cc(C(F)F)n3n2)CC1 [Example 167, 1.1,1,3,3,3-Hexafluoropropan-2-yl 1-(5-cyclopropyl-7-(difluoromethyl)pyrazolo[1,5-a]pyrimidine-2-carbonyl)-1,8-diazaspiro[4.5] decane-8-carboxylate]
> 75 | > 75 |  | < 100 |  |  | Cc1nc(C)c(C(=O)N2CCCC23CCN(C(=O)OC(C(F)(F)F)C(F)(F)F)CC3)o1 [Example 128, 1,1,1,3,3,3-Hexafluoropropan-2-yl 1-(2,4-dimethyloxazole-5-carbonyl)-1,8-diazaspiro[4.5] decane-8-carboxylate]
> 75 | 25 to 75 | > 75 |  |  |  | CC(=O)N1CCn2cc(C(=O)N(C)C3(C)CCN(C(=O)OC(C(F)(F)F)C(F)(F)F)CC3)nc2C1 [Example 26, 1,1,1,3,3,3-Hexafluoropropan-2-yl 4-(7-acetyl-N-methyl-5,6,7,8-tetrahydroimidazo[1,2-a]pyrazine-2-carboxamido)-4-methylpiperidine-1-carboxylate]
 | > 75 | > 75 |  |  |  | CC1(NC(=O)c2cn3c(n2)CN(c2cnccn2)CC3)CCN(C(=O)OC(C(F)(F)F)C(F)(F)F)CC1 [Example 29, 1,1,1,3,3,3-Hexafluoropropan-2-yl 4-methyl-4-(7-(pyrazin-2-yl)-5,6,7,8-tetrahydroimidazo[1,2-a]pyrazine-2-carboxamido)piperidine-1-carboxylate]
 | > 75 |  | < 100 | < 100 |  | O=C(OC(C(F)(F)F)C(F)(F)F)N1CCC2(CCCN2C(=O)c2ccn(Cc3ccccc3)n2)CC1 [Example 91, 1,1,1,3,3,3-Hexafluoropropan-2-yl 1-(1-benzyl-1H-pyrazole-3-carbonyl)-1,8-diazaspiro[4.5] decane-8-carboxylate]
> 75 | > 75 | > 75 | < 100 |  |  | O=C(OC(C(F)(F)F)C(F)(F)F)N1CCC2(CCCN2C(=O)c2cnn3ccc(Cl)nc23)CC1 [Example 145, 1,1,1,3,3,3-Hexafluoropropan-2-yl 1-(5-chloropyrazolo[1,5-a]pyrimidine-3-carbonyl)-1,8-diazaspiro[4.5] decane-8-carboxylate]
> 75 | > 75 | > 75 |  |  |  | O=C(OC(C(F)(F)F)C(F)(F)F)N1CCC2(CCCN2C(=O)c2c(C3CC3)nc3cccnn23)CC1 [Example 3, 1,1,1,3,3,3-Hexafluoropropan-2-yl 1-(2-cyclopropylimidazo[1,2-b]pyridazine-3-carbonyl)-1,8-diazaspiro[4.5]decane-8-carboxylate]
 | > 75 |  | < 100 | < 100 |  | O=C(OC(C(F)(F)F)C(F)(F)F)N1CCC2(CCCN2C(=O)c2ccn(-c3ccc(Cl)cc3)n2)CC1 [Example 92, 1,1,1,3,3,3-Hexafluoropropan-2-yl 1-(1-(4-chlorophenyl)-1H-pyrazole-3-carbonyl)-1,8-diazaspiro[4.5] decane-8-carboxylate]
> 75 | > 75 |  | < 100 |  |  | Cc1nc2ccccn2c1C(=O)N1CCCC12CCN(C(=O)OC(C(F)(F)F)C(F)(F)F)CC2 [Example 134, 1,1,1,3,3,3-Hexafluoropropan-2-yl 1-(2-methyl-imidazo[1,2-a]pyridine-3-carbonyl)-1,8-diazaspiro[4.5] decane-8-carboxylate]
 | > 75 |  | < 100 | < 100 |  | O=C(OC(C(F)(F)F)C(F)(F)F)N1CCC2(CCCN2C(=O)c2cn3ccccc3n2)CC1 [Example 69, 1,1,1,3,3,3-Hexafluoropropan-2-yl 1-(imidazo[1,2-a]pyridine-2-carbonyl)-1,8-diazaspiro[4.5] decane-8-carboxylate]
> 75 | > 75 |  |  |  |  | O=C(OC(C(F)(F)F)C(F)(F)F)N1CCC2(CCCN2Cc2cc3cc(Cl)c(Cl)cc3[nH]2)CC1 [Example 112, 1,1,1,3,3.3-Hexafluoropropan-2-yl 1-((5,6-dichloro-1H-indol-2-yl)methyl)-1,8-diazaspiro[4.5] decane-8-carboxylate]
 | > 75 |  | < 100 | < 100 | < 100 | O=C(OC(C(F)(F)F)C(F)(F)F)N1CCC2(CCCN2C(=O)c2cc3cccc(F)c3s2)CC1 [Example 96, 1,1,1,3,3,3-Hexafluoropropan-2-yl 1-(7-fluorobenzo[b]thiophene-2-carbonyl)-1,8-diazaspiro[4.5] decane-8-carboxylate]
> 75 | 25 to 75 | > 75 |  |  |  | O=C(O)CN1CCn2cc(C(=O)N3CCCC34CCN(C(=O)OC(C(F)(F)F)C(F)(F)F)CC4)nc2C1 [Example 158, 2-(2-(8-(((1,1,1,3,3,3-Hexafluoropropan-2-yl)oxy)carbonyl)-1,8-diazaspiro[4.5]decane-1-carbonyl)-5,6-dihydroimidazo[1,2-a]pyrazin-7(8H)-yl) acetic acid]
> 75 | > 75 | > 75 |  |  |  | O=C(OC(C(F)(F)F)C(F)(F)F)N1CCC2(CCCN2C(=O)c2cnn3ccccc23)CC1 [Example 146, 1,1,1,3,3,3-Hexafluoropropan-2-yl 1-(pyrazolo[1,5-a]pyridine-3-carbonyl)-1,8-diazaspiro[4.5] decane-8-carboxylate]
25 to 75 | < 25 |  |  |  |  | Cc1ncncc1C(=O)N1CCCC12CCN(C(=O)OC(C(F)(F)F)C(F)(F)F)CC2 [Example 127, 1,1,1,3,3,3-Hexafluoropropan-2-yl 1-(4-methyl-pyrimidine-5-carbonyl)-1,8-diazaspiro[4.5] decane-8-carboxylate]
> 75 | > 75 | > 75 | < 100 |  |  | Cc1cc(C)n2nc(C)c(C(=O)N3CCCC34CCN(C(=O)OC(C(F)(F)F)C(F)(F)F)CC4)c2n1 [Example 172, 1,1,1,3,3,3-Hexafluoropropan-2-yl 1-(2,5,7-trimethylpyrazolo [1,5-a]pyrimidine-3-carbonyl)-1,8-diazaspiro[4.5] decane-8-carboxylate]
> 75 | > 75 | > 75 |  |  |  | CCN(C(=O)c1cn2c(n1)CN(C1CC1)CC2)C1(C)CCN(C(=O)OC(C(F)(F)F)C(F)(F)F)CC1 [Example 178, 1,1,1,3,3,3-Hexafluoropropan-2-yl 4-(7-cyclopropyl-N-ethyl-5,6,7,8-tetrahydroimidazo [1,2-a]pyrazine-2-carboxamido)-4-methylpiperidine-1-carboxylate]
 | > 75 | > 75 | < 100 |  |  | CC1(NC(=O)c2cn3c(n2)CN(C(=O)C2(F)CC2)CC3)CCN(C(=O)OC(C(F)(F)F)C(F)(F)F)CC1 [Example 192, 1,1,1,3,3,3-Hexafluoropropan-2-yl 4-(7-(1-fluorocyclopropane-1-carbonyl)-5,6,7,8-tetrahydroimidazo[1,2-a]pyrazine-2-carboxamido)-4-methylpiperidine-1-carboxylate]
25 to 75 | < 25 |  |  |  |  | O=C(OC(C(F)(F)F)C(F)(F)F)N1CCC2(CCCN2C(=O)c2cncnc2)CC1 [Example 68, 1,1,1,3,3,3-Hexafluoropropan-2-yl 1-(pyrimidine-5-carbonyl)-1,8-diazaspiro[4.5] decane-8-carboxylate]
> 75 | > 75 | > 75 | < 100 |  |  | O=C(OC(C(F)(F)F)C(F)(F)F)N1CCC2(CCCN2C(=O)c2cnn3c2OCCC3)CC1 [Example 149, 1,1,1,3,3,3-Hexafluoropropan-2-yl 1-(6,7-dihydro-5H-pyrazolo[5,1-b] [1,3]oxazine-3-carbonyl)-1.8-diazaspiro[4.5] decane-8-carboxylate]
> 75 | > 75 | > 75 |  |  |  | O=C(OC(C(F)(F)F)C(F)(F)F)N1CCC2(CCCN2C(=O)c2cc3nccc(C4CC4)n3n2)CC1 [Example 165, 1,1,1,3,3,3-Hexafluoropropan-2-yl 1-(7-cyclopropylpyrazolo [1,5-a]pyrimidine-2-carbonyl)-1,8-diazaspiro[4.5] decane-8-carboxylate]
 | > 75 | > 75 | < 100 |  |  | O=C(OC(C(F)(F)F)C(F)(F)F)N1CCC2(CCCN2C(=O)c2cn3c(n2)CN(C2CCOCC2)CC3)CC1 [Example 162, 1,1,1,3,3,3-Hexafluoropropan-2-yl 1-(7-(tetrahydro-2H-pyran-4-yl)-5,6,7,8-tetrahydroimidazo [1,2-a]pyrazine-2-carbonyl)-1,8-diazaspiro[4.5] decane-8-carboxylate]
